Measurements published in patent US9340532B2, “Methods and compositions for inhibiting CNKSR1” (PHUSIS THERAPEUTICS, INC., priority 2012, dated 2016).
Read-outs that look alike come from different tables or passages of the source.

Columns and labels:
[1] = system: H1373 (KRAS mutant cell line); assay: Proliferation Assay H1373; type: cell-based; conditions: Homo sapiens, NCI-H1373, N = 2 experiments
Description: (§1) The isogenic KRAS lines harboring G12D, G12C, and G12V were obtained from Horizon Discovery labs on a one year lease. These cells were cultured in McCoys media with 10% FBS to 80% confluency. Cells were then released from flasks via trypsinization and plated into 96-well plates at an initial density range of 2000 cells per well. Cells were allowed 24 hours to attach, and then the agents were added to the culture media at a range of concentrations from 0-100 μM. Cells were incubated for 72 hours with the drugs, and then viability was assessed using an MTS viability assay. Cells were exposed to MTS reagent (Promega) dissolved in PBS (Hyclone) at a concentration of 200 μL reagent/mL media for 2 hours. Absorbance was then read at 490 nm, and viability was expressed as a percentage normalized between the negative control (no cells plated) and the condition of cells with no drug added (100% viability) normalized as the upper limit of viability.
(§2) Our panel of 30 cell lines and an extensive characterization were obtained from Dr. John Minna (UTSW). All cell lines were cultured in RPMI 1640 with 10% FBS. Cells were treated with concentrations of agents at concentrations 0.01 to 50 μM and evaluated as described above. IC50's were determined using Excelfit.

[2] = biological target: T1, CNK1 PH-domain (CNKSR1) (Homo sapiens, UniProt Q969H4); assay: SPR binding assay (Biacore T100), CNK1 PH-domain; conditions: for Surface Plasmon Resonance CNKSR1 binding (RU max) / Surface Plasmon Resonance CNKSR1 stability (RU max post-injection): date 12 09 13
T1 construct: The PH-domain His-fusion proteins (CNK1 and AKT1) were expressed and immobilized on a NTA chip; made in house
T1 sequence (Q969H4 403-502 limits assumed): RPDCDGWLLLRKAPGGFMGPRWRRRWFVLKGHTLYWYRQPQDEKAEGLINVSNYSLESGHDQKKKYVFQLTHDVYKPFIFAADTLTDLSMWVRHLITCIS
Description: (§3) All interaction analyses were done with a Biacore T100 Control Software v3.2, and BIAevaluation v4.1 analysis software (Biacore). The PH-domain His-fusion proteins (CNK1 and AKT1) were expressed and immobilized on a NTA chip to a level of 10,000 response units or less. Small molecule analytes at concentrations ranging from 50 μM to 0.010 μM were injected at a high flow rate (30 μL/min) DMSO concentrations in all samples and running buffer were 1-5% (v/v).
Other docking was performed using modeling algorithms with state-of-the-art commercial drug discovery software (Schrodinger suite). […] Additionally, ligand-based approaches provided an alternative to structure based drug discovery. Ligand-based virtual screening methodologies can take into account shape and electrostatics (like ROCS) and the pharmacophoric features (acceptor, donor, hydrophobic, aromatic, etc.) of its functional groups. […] SPR interaction analyses of all other compounds was undertaken using a Biacore T100 with Control and Evaluation software kit.

[3] = system: H1975 (KRAS wildtype cell line); assay: Proliferation Assay H1975; type: cell-based; conditions: Homo sapiens, NCI-H1975, n = 1
Description: as §1, §2

[4] = system: A549 (KRAS mutant cell line); assay: Proliferation Assay A549; type: cell-based; conditions: Homo sapiens, N = 2 experiments
Description: as §1, §2

[5] = biological target: T2, AKT1 PH-domain (Homo sapiens, UniProt P31749); assay: SPR binding assay (Biacore T100), AKT1 PH-domain; conditions: read-out: AKT KD
T2 construct: The PH-domain His-fusion proteins (CNK1 and AKT1) were expressed and immobilized on a NTA chip; made in house
Description: as §3
A commercially available docking package, GOLD (GOLD [3.2], CCDC: Cambridge, UK, 2007) was used to evaluate the docking of compounds 1-7 into the binding pocket, see e.g. Table 5. Other docking was performed using modeling algorithms with state-of-the-art commercial drug discovery software (Schrodinger suite). GLIDE was chosen as the docking algorithm used to select and optimize compounds, providing a GlideScore as a rough estimate of binding affinity that was used to rank and select the best compounds. Additionally, ligand-based approaches provided an alternative to structure based drug discovery. Ligand-based virtual screening methodologies can take into account shape and electrostatics (like ROCS) and the pharmacophoric features (acceptor, donor, hydrophobic, aromatic, etc.) of its functional groups. Inositol tetraphosphate (IP4) binding to the PH-domain of CNKSR1 provided a good starting point for shape screening. Both structure-based and ligand-based approaches were used to find novel compounds (Table 7) and to refine and improve lead compounds (Tables 8, and 9). SPR interaction analyses for Compounds 1 through 7 were performed with a Biacore 2000, using Biacore2000 Control Software v3.2 and BIAevaluation v4.1 analysis software (Biacore) as described in Mol Cancer Ther 7:2621 (2008). SPR interaction analyses of all other compounds was undertaken using a Biacore T100 with Control and Evaluation software kit.

[6] = system: H226 (KRAS wildtype cell line); assay: Proliferation Assay H226; type: cell-based; conditions: Homo sapiens, NCI-H226, n = 1
Description: as §1, §2

[7] = Mouse pharmacokinetics (iv); type: in vivo; conditions: for clearance: in vivo
[8] = system: mut-KRAS NSCLC cell lines; assay: Screening against NSCLC cell line panel, mut-KRAS lines; type: cell-based; conditions: Table 5; read-out: Mean IC50 mut-KRAS
Description: as §1, §2

T2 sequence (P31749 5-108 limits assumed): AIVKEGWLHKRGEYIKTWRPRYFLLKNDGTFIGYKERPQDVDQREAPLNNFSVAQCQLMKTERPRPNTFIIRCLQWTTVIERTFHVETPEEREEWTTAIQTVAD

Row | Structure (SMILES) | IC50 [1] [µM] | Kd ([2]; Table 6, read-out: CNKS KD) [µM] | Surface Plasmon Resonance CNKSR1 binding (RU max) [2] [RU * 100/Da] | Surface Plasmon Resonance CNKSR1 stability (RU max post-injection) [2] [RU * 100/Da] | IC50 [3] [µM] | IC50 [4] [µM] | Kd ([5]; Table 6) [µM] | IC50 [6] [µM] | t1/2β [7] [min] | clearance [7] [mL/min/kg] | Kd ([2]; Table 8, read-out: CNK KD) [µM] | Kd ([5]; Table 8) [µM] | IC50 [8] [µM]
1 | Cc1ccc(-c2csc(Cn3nc(NS(=O)(=O)c4cccs4)c4ccccc4c3=O)n2)cc1 [Compound 5] | > 100 | 51.3 | −0.695 | −0.158 | 80 | 90 | 34.2 | > 100 | – | – | – | – | –
2 | Cc1ccc(-c2csc(Cn3nc(CC=O)c4ccccc4c3=O)n2)cc1 [Compound 79] | – | 4.2 | – | – | – | – | – | – | 35 | 30 | – | – | –
3 | CCOC(=O)CCc1cc(NS(=O)(=O)c2cccs2)c2c(c1OC)OCO2 [Compound 85, ethyl 3-(4-methoxy-7-(thiophene-2-sulfonamido)benzo[d][1,3]dioxol-5-yl)propanoate] | > 100 | – | 1.026 | 1.515 | > 100 | > 100 | – | > 100 | – | – | > 500 | > 500 | –
4 | CCOC(=O)/C=C/c1cc(NS(=O)(=O)c2cccs2)c2c(c1OC)OCO2 [Compound 86, (E)-ethyl 3-(4-methoxy-7-(thiophene-2-sulfonamido)benzo[d][1,3]dioxol-5-yl)acrylate] | > 100 | – | −0.807 | −0.197 | > 100 | > 100 | – | > 100 | – | – | 123 | > 500 | –
5 | COc1cc(NS(=O)(=O)c2cccs2)c(SC)c(/C=C/C(=O)O)c1O [Compound 104, (2E)-3-[2-hydroxy-3-methoxy-6-(methylsulfanyl)-5-(thiophene-2-sulfonamido)phenyl]prop-2-enoic acid] | 82 | – | 2.132 | 2.049 | > 100 | 60 | – | 75 | – | – | 1.56 | 4.8 | –
6 | CCOC(=O)/C=C/c1c(O)c(O)cc(NS(=O)(=O)c2cccs2)c1SC [Compound 105, ethyl (2E)-3-[2,3-dihydroxy-6-(methylsulfanyl)-5-(thiophene-2-sulfonamido)phenyl]prop-2-enoate] | 42 | – | −0.676 | −0.197 | > 100 | 100 | – | 70 | – | – | 2.86 | 6.22 | –
7 | CSc1c(NS(=O)(=O)c2cccs2)cc(O)c(O)c1/C=C/C(=O)O [Compound 106, (2E)-3-[2,3-dihydroxy-6-(methylsulfanyl)-5-(thiopliene-2-sulfonamido)phenyl]prop-2-enoic acid] | 58 | – | −0.928 | 0.511 | > 100 | 55 | – | 70 | – | – | 0.614 | 13.5 | –
8 | CCOC(=O)/C=C/c1c(O)c(OC)cc(N)c1SC [Compound 107, ethyl (E)-3-(5-amino-2-hydroxy-3-methoxy-6-methylsulfanylphenyl)prop-2-enoate] | 45 | – | −0.174 | −0.083 | 95 | 45 | – | 60 | – | – | 125 | 286 | –
9 | COc1cc(N)c(SC)c(/C=C/C(=O)O)c1O [Compound 108, (2E)-3-[3-amino-6-hydroxy-5-methoxy-2-(methylsulfanyl)phenyl]prop-2-enoic acid] | 38 | – | −0.024 | 0.056 | 100 | 30 | – | 55 | – | – | 72.5 | 133 | –
10 | CCOC(=O)/C=C/c1c(O)c(O)cc(N)c1SC [Compound 109, ethyl (2E)-3-[3-amino-5,6-dihydroxy-2-(methylsulfanyl)phenyl]prop-2-enoate] | > 100 | – | 1.527 | 0.168 | > 100 | > 100 | – | > 100 | – | – | 19.2 | 140 | –
11 | CSc1c(N)cc(O)c(O)c1/C=C/C(=O)O [Compound 110, (2E)-3-[3-amino-5,6-dihydroxy-2-(methylsulfanyl)phenyl]prop-2-enoic acid] | 28 | – | 0.217 | 0.032 | > 100 | 27 | – | 65 | – | – | – | 178 | –
12 | CSc1sc(C#N)c(C)c1-c1ccn(S(=O)(=O)c2ccc(Cl)cc2)n1 [Compound 117] | – | – | – | – | – | – | – | – | – | – | – | – | 21.9 ± 5.7
13 | O=S(=O)(Nc1n[nH]c(SCc2ccc(Cl)cc2)n1)c1ccc(-c2ccccn2)s1 [Compound 118] | – | – | – | – | – | – | – | – | – | – | – | – | 49.3 ± 0.6
14 | Cn1c(Cc2nn(C)c(=O)c3ccccc23)nnc1SCC(=O)c1ccc(Cl)cc1Cl [Compound 119] | – | – | – | – | – | – | – | – | – | – | – | – | > 50
15 | O=C(CSc1nnnn1-c1cccc(Cl)c1)c1cc2ccccc2o1 [Compound 121] | – | – | – | – | – | – | – | – | – | – | – | – | 46.7 ± 3.3
16 | N#Cc1cnn(-c2ccccc2)c1NC(=O)CSc1nnc(-c2ccco2)n1-c1ccc(F)cc1 [Compound 122] | – | – | – | – | – | – | – | – | – | – | – | – | > 50
17 | Cc1ccc(-c2csc(Cn3nc(CC(=O)N4CCN(C)CC4)c4ccccc4c3=O)n2)cc1 [Compound 123] | – | – | – | – | – | – | – | – | 327 | 31 | – | – | –
